{"source": "paper PMC6508677", "about": "“Identification of druggable small molecule antagonists of the Plasmodium falciparum hexose transporter PfHT and assessment of ligand access to the glucose permeation pathway via FLAG-mediated protein engineering” (PLoS ONE, 2019)", "biological_target": "T1, hGLUT5 (Homo sapiens, UniProt P22732)", "T1 construct": "expressed in transfected cells; host or cells: HEK293 (HEK293-FLIP); native hGLUT1 not knocked down in this line", "T1 sequence (P22732 1-501)": "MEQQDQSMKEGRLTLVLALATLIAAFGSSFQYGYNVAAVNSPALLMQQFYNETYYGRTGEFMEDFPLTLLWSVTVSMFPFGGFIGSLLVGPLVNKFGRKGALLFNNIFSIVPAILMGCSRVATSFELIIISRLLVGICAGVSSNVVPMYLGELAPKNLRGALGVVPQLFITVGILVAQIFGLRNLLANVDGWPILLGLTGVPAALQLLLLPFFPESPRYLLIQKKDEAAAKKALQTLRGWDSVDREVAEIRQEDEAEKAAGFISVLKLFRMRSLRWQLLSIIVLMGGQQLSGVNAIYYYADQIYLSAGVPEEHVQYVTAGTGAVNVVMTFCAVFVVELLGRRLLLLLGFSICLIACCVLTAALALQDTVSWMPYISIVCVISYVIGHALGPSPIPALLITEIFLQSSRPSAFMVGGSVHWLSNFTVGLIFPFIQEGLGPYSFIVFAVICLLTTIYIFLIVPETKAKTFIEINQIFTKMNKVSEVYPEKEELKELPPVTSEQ", "test": "[3H]-D-fructose uptake by HEK293 cells overexpressing GLUT5", "assay_type": "cell-based", "source_text": "Generation of HEK293 cells overexpressing PfHT and human GLUTs 1–4 were described elsewhere. Briefly, HEK293 cells were transfected with pcDNA3.1 FLII12Pglu-7006 (Addgene), containing the fluorescence resonance energy transfer (FRET) glucose sensor (HEK293-FLIP) and PfHT, human GLUT1 (hGLUT1), hGLUT2, hGLUT3, hGLUT4, hGLUT5 or hGLUT8 using Optifect (Life Technologies) according to manufacturer’s specifications. To increase retention of GLUT8 at the plasma membrane, the dileucine sorting signal E^7E^8XXXLL was modified to R^7R^8XXXLL as described in [17]. Stable transfectants were selected for G418 and hygromycin resistance to select for FRET sensor and hexose transporter, respectively. HEK293-FLIP cells were also used to generate cells stably transfected with FLAG-tagged PfHT (FTPfHT). FLAG tag ([…]) followed by a triple glycine linker and a tobacco etch virus (TEV) protease site (ENLYFQS) followed by a triple glycine linker was added to the N-terminus of PfHT via PCR [18] using Phusion Hot Start II High-Fidelity DNA Polymerase (Fisher Scientific). Single clones were selected by comparing their abilities to transport glucose as assayed via FRET and radiolabeled hexose uptake. In all cell lines, except for HEK293 cells overexpressing hGLUT1 and hGLUT5, native hGLUT1 was knocked down using shRNA as described elsewhere. Transcript levels of the individual GLUTs expressed in each cell line are as described in [13, 15] and in S1 Fig.\nGlucose uptake by P. falciparum was performed essentially as described. P. falciparum strain 3D7 was cultured in 100 mm tissue culture dishes (Techno Plastic Products) in a 2% suspension of human erythrocytes and RPMI 1640 medium until reaching > 7.5% parasitemia. Cells were pelleted via centrifugation and resuspended in RPMI 1640 medium. To determine the uptake of radiolabeled glucose into the parasite, parasites were isolated from infected erythrocytes by permeablization with saponin (0.05 w/v), followed by centrifugation, aspiration of supernatant and washing of the pellet 3X with saline solution (135 mM NaCl, 2 mM KCl, 25 mM HEPES, 0.2 mM glucose and 1 mM MgCl2; pH 7.1) to remove cellular debris. WU-1 or DMSO vehicle were added to 100 μl parasites (resuspended in saline) 5 min prior to the addition of 100 μl [^14C]2-DOG (0.2- μCi/ml final concentration). 2-DG uptake was stopped after 2 min by layering the entire reaction over 300 μl of an oil mixture (5:4 mix of dibutyl phthalate / dinonyl phthalate) in Eppendorf tubes and centrifuged at 15,850 × g for 2 mins. The ratio of the estimated intracellular concentration of radiolabel relative to the extracellular concentration were calculated as described. Uptake of radiolabeled hexose into HEK293 cells was measured in glucose-free HBSS as described previously. Briefly, cells were plated at 400,000 cells/well overnight at 37°C in 24-well plates pre-treated with PEI. After 30-min incubation at 37°C in glucose-free HBSS in the presence of vehicle or increasing concentrations of compound, 2-DG uptake was measured in glucose-free HBSS for 4 min at 37°C. Cultures were washed in ice-cold 1X PBS and lysed in 0.1% Triton X-100 in 1X PBS. Radiolabeled hexose uptake was determined by liquid scintillation counting (Ultima Gold, Thermo Fisher) and normalized to total protein per well. Uptake data are plotted as percent uptake relative to vehicle-treated cells. Kinetic analyses were performed using the indicated concentrations of substrate and WU-1, with quenching of uptake after 1 min incubation. Incubation times had been previously determined as being in the linear range of time-dependent radiolabeled hexose uptake (2 min for 2-DG uptake into freed parasites; 2 and 4 min for D-Frc and 2-DG uptake HEK cell lines, respectively). Data were fit by least squares nonlinear regression analysis using GraphPad Prism 6.0 software."}
{"smiles": "Cc1ccc(S(=O)(=O)CCNC(=O)c2c(-c3c(Cl)cccc3Cl)noc2C)cc1", "note": "[WU-1, 3-(2,6-dichlorophenyl)-5-methyl-N-[2-(4-methylbenzenesulfonyl)ethyl]-1,2-oxazole-4-carboxamide]", "values": [{"measurement": "IC50 (µM)", "setting": "GLUT5, D-frc Uptake", "result": "ambiguous"}, {"measurement": "IC50, D-fructose (Frc) uptake", "setting": "GLUT5 cell line", "result": "n.i."}, {"measurement": "remaining activity at 0.001 µM", "setting": "HEK293, 2 min, GLUT5, concentration 0.001 µM, read-out: D-frc Uptake AVE", "result": 100, "unit": "%"}, {"measurement": "remaining activity at 0.3125 µM", "setting": "HEK293, 2 min, GLUT5, concentration 0.3125 µM, read-out: D-frc Uptake AVE", "result": 78.1, "unit": "%"}, {"measurement": "remaining activity at 0.625 µM", "setting": "HEK293, 2 min, GLUT5, concentration 0.6250 µM, read-out: D-frc Uptake AVE", "result": 82.9, "unit": "%"}, {"measurement": "remaining activity at 1.25 µM", "setting": "HEK293, 2 min, GLUT5, concentration 1.2500 µM, read-out: D-frc Uptake AVE", "result": 96.7, "unit": "%"}, {"measurement": "remaining activity at 2.5 µM", "setting": "HEK293, 2 min, GLUT5, concentration 2.5000 µM, read-out: D-frc Uptake AVE", "result": 102, "unit": "%"}, {"measurement": "remaining activity at 5 µM", "setting": "HEK293, 2 min, GLUT5, concentration 5 µM, read-out: D-frc Uptake AVE", "result": 89.8, "unit": "%"}, {"measurement": "remaining activity at 10 µM", "setting": "HEK293, 2 min, GLUT5, concentration 10 µM, read-out: D-frc Uptake AVE", "result": 87.6, "unit": "%"}, {"measurement": "remaining activity at 20 µM", "setting": "HEK293, 2 min, GLUT5, concentration 20 µM, read-out: D-frc Uptake AVE", "result": 103, "unit": "%"}, {"measurement": "remaining activity at 40 µM", "setting": "HEK293, 2 min, GLUT5, concentration 40 µM, read-out: D-frc Uptake AVE", "result": 108, "unit": "%"}, {"measurement": "remaining activity at 80 µM", "setting": "HEK293, 2 min, GLUT5, concentration 80 µM, read-out: D-frc Uptake AVE", "result": 110, "unit": "%"}, {"measurement": "remaining activity at 160 µM", "setting": "HEK293, 2 min, GLUT5, concentration 160 µM, read-out: D-frc Uptake AVE", "result": 111, "unit": "%"}, {"measurement": "remaining activity at 225 µM", "setting": "HEK293, 2 min, GLUT5, concentration 225 µM, read-out: D-frc Uptake AVE", "result": 125, "unit": "%"}, {"measurement": "Selectivity Index (PfHT over GLUT5), Frc", "setting": "calculated from IC50s", "result": "n.i."}]}
